Each structure is given as a SMILES string. Where only a bound is given, the exact number is not on record here.

The test deals with A2780. Put plainly: Antiproliferative activity against human A2780 cells after 2 days by alamar blue assay. In kind it is functional, cell-based. The conditions noted are these: A2780, 48 h. Background: The colour change of resazurin is a common sign of viable cells or microbes.
Turning to `COc1cc2c(cc1C)C(C(C)C)CC=C2C` (stereo unspecified), the IC50 (in general, the concentration that gives 50% inhibition) was more than 50 µM.

`COc1cc2c(cc1C)C(C(C)C)CC(O)[C@]2(C)O` (stereo partly specified) came in with an IC50 of more than 50 µM.

The molecule `COc1cc2c(cc1C)C(C(C)C)CC(=O)[C@]2(C)O` (stereo partly specified) returned a 50% inhibitory concentration (IC50) of 33.9 µM. This lies in the double-digit micromolar range.

The molecule `COc1cc2c(cc1C)C(C(C)C)=CC(O)[C@]2(C)O` (stereo partly specified) yielded an IC50 of 22.1 µM.

`COc1cc2c(cc1C)C(O)(C(C)C)C(O)C(O)[C@]2(C)O` (mixture of isomers) gave an IC50 of 35.5 µM. Compared with the last molecule, the IC50 is about 1.6-fold higher.

In turn, `COc1cc2c(cc1C)[C@](O)(C(C)C)C(=O)C(=O)[C@]2(C)O` (stereo in doubt) had an IC50 of 5.5 µM.

Molecule `COc1cc2c(cc1C)[C@@](O)(C(C)C)C(=O)C(=O)[C@@]2(C)O` (stereo in doubt) had an IC50 of 5.9 µM.

In the case of `COc1cc2c(cc1C)[C@](O)(C(C)C)C(=O)C(=O)[C@@]2(C)O` (stereo in doubt), the half-inhibitory concentration (IC50) stood at 6.7 µM. The IC50 values of the last two molecules are within 1.5-fold of each other.

Molecule `COc1cc2c(cc1C)[C@@](O)(C(C)C)C(=O)C(=O)[C@]2(C)O` (stereo in doubt) had an IC50 of 6.3 µM.

`COc1cc2c(cc1C)C(C(C)C)=CC(=O)[C@]2(C)O` [LACINILENE C METHYL ETHER] came in with a concentration for half-maximal inhibition (IC50) of 4 µM.

For `CC1=Cc2c(c(C)cc(O)c2C(C)C)C(=O)C1=O` [MANSONONE G], the half-inhibitory concentration (IC50) was 10.2 µM.

Values taken from ChEMBL document CHEMBL2203038, “Isolation and synthesis of two antiproliferative calamenene-type sesquiterpenoids from Sterculia tavia from the Madagascar rain forest” (Bioorg Med Chem, 2012).
